Measured values taken from PubChem BioAssay AID256 (DTP/NCI, 2004).
Inconclusive results and toxic doses are left out. How the source made its calls: active means survival T/C of 150% or more; inactive means T/C below 125% in these data.

Test system: CD2F1 mice, L1210 leukemia ip, survival T/C
Assay: NCI In Vivo Anticancer Drug Screen. Data for tumor model L1210 Leukemia (intraperitoneal) in CD2F1 (CDF1) mice
Settings: higher = longer survival
Method in brief: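 Each value reflects a quotient of treated over vehicle control outcomes in mice with a transplanted tumor.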

[1] = endpoint: mean survival time, dose: 100.0 mg/kg/injection, schedule: Q04DX003 (ip), vehicle: saline with Tween-80
[2] = endpoint: mean survival time, dose: 200.0 mg/kg/injection, schedule: Q01DX009 (ip), vehicle: saline with Tween-80
[3] = endpoint: mean survival time, dose: 200.0 mg/kg/injection, schedule: Q04DX003 (ip), vehicle: saline with Tween-80
[4] = endpoint: mean survival time, dose: 400.0 mg/kg/injection, schedule: Q01DX009 (ip), vehicle: saline with Tween-80
[5] = endpoint: mean survival time, dose: 400.0 mg/kg/injection, schedule: Q04DX003 (ip), vehicle: saline with Tween-80
[6] = endpoint: mean survival time, dose: 100.0 mg/kg/injection, schedule: Q01DX009 (ip), vehicle: saline with Tween-80
[7] = endpoint: mean survival time, dose: 100.0 mg/kg/injection, schedule: Q04DX002 (ip), vehicle: Klucel (hydroxypropylcellulose) (HPC)
[8] = endpoint: mean survival time, dose: 200.0 mg/kg/injection, schedule: Q04DX002 (ip), vehicle: Klucel (hydroxypropylcellulose) (HPC)
[9] = endpoint: mean survival time, dose: 400.0 mg/kg/injection, schedule: Q04DX002 (ip), vehicle: Klucel (hydroxypropylcellulose) (HPC)
[10] = endpoint: mean survival time, dose: 100.0 mg/kg/injection, schedule: Q04DX002 (ip), vehicle: saline with Tween-80
[11] = endpoint: mean survival time, dose: 200.0 mg/kg/injection, schedule: Q04DX002 (ip), vehicle: saline with Tween-80

Measured: T/C

Cc1cc(Cc2ccc(N=C=O)c(C)c2)ccc1N=C=O
inactive: [1] 103 % of control | [2] 89 % of control | [3] 111 % of control | [4] 89 % of control | [5] 106 % of control

CC1=NCCCN=C(C)C(C)=NCCCN=C1C.[Ni+2].[O-][Cl+3]([O-])([O-])O
inactive: endpoint: mean survival time, dose: 25.0 mg/kg/injection, schedule: Q04DX003 (ip), vehicle: saline 91 % of control | endpoint: mean survival time, dose: 50.0 mg/kg/injection, schedule: Q04DX002 (ip), vehicle: saline with Tween-80 96 % of control | endpoint: mean survival time, dose: 50.0 mg/kg/injection, schedule: Q04DX003 (ip), vehicle: saline 94 % of control

CC1(c2ccccc2)CCc2ccccc21 (stereo not drawn)
inactive: [6] 97 % of control | [2] 95 % of control | [4] 95 % of control

CN(C)C1c2ccccc2-c2ccccc21
inactive: endpoint: mean survival time, dose: 50.0 mg/kg/injection, schedule: Q01DX001 (ip), vehicle: carboxymethylcellulose (CMC) 104 % of control | endpoint: mean survival time, dose: 100.0 mg/kg/injection, schedule: Q01DX001 (ip), vehicle: carboxymethylcellulose (CMC) 104 % of control | endpoint: mean survival time, dose: 200.0 mg/kg/injection, schedule: Q01DX001 (ip), vehicle: carboxymethylcellulose (CMC) 104 % of control | endpoint: mean survival time, dose: 400.0 mg/kg/injection, schedule: Q01DX001 (ip), vehicle: carboxymethylcellulose (CMC) 110 % of control

CCC1OC2CS(=O)(=O)CC2O1 (stereo not drawn)
inactive: [1] 96 % of control | [3] 96 % of control | [5] 96 % of control

Sc1ccc(Cl)cc1
inactive: endpoint: mean survival time, dose: 100.0 mg/kg/injection, schedule: Q01DX001 (ip), vehicle: saline with Tween-80 98 % of control | endpoint: mean survival time, dose: 200.0 mg/kg/injection, schedule: Q01DX001 (ip), vehicle: saline with Tween-80 98 % of control | endpoint: mean survival time, dose: 400.0 mg/kg/injection, schedule: Q01DX001 (ip), vehicle: saline with Tween-80 102 % of control

C[N+](C)(Cc1ccccc1)c1ccccc1
inactive: endpoint: mean survival time, dose: 10.0 mg/kg/injection, schedule: Q01DX009 (ip), vehicle: saline 109 % of control | endpoint: mean survival time, dose: 20.0 mg/kg/injection, schedule: Q01DX009 (ip), vehicle: saline 94 % of control

CC(C)(C)OC(=O)C[Si](C)(C)C
inactive: endpoint: mean survival time, dose: 12.5 mg/kg/injection, schedule: Q01DX005 (ip), vehicle: Klucel (hydroxypropylcellulose) (HPC) 90 % of control | endpoint: mean survival time, dose: 25.0 mg/kg/injection, schedule: Q01DX005 (ip), vehicle: Klucel (hydroxypropylcellulose) (HPC) 91 % of control | endpoint: mean survival time, dose: 50.0 mg/kg/injection, schedule: Q01DX005 (ip), vehicle: Klucel (hydroxypropylcellulose) (HPC) 93 % of control | endpoint: mean survival time, dose: 100.0 mg/kg/injection, schedule: Q01DX005 (ip), vehicle: Klucel (hydroxypropylcellulose) (HPC) 90 % of control | endpoint: mean survival time, dose: 200.0 mg/kg/injection, schedule: Q01DX005 (ip), vehicle: Klucel (hydroxypropylcellulose) (HPC) 88 % of control | endpoint: mean survival time, dose: 400.0 mg/kg/injection, schedule: Q01DX005 (ip), vehicle: Klucel (hydroxypropylcellulose) (HPC) 90 % of control

CC(NC(=O)C(CSC(c1ccccc1)(c1ccccc1)c1ccccc1)NC(c1ccccc1)(c1ccccc1)c1ccccc1)C(=O)O (stereo not drawn)
inactive: endpoint: mean survival time, dose: 150.0 mg/kg/injection, schedule: Q01DX001 (ip), vehicle: saline 96 % of control

CC1COS(=O)O1 (stereo not drawn)
inactive: endpoint: mean survival time, dose: 10.0 mg/kg/injection, schedule: Q01DX009 (ip), vehicle: saline with Tween-80 96 % of control | endpoint: mean survival time, dose: 10.0 mg/kg/injection, schedule: Q04DX003 (ip), vehicle: saline 103 % of control | endpoint: mean survival time, dose: 20.0 mg/kg/injection, schedule: Q01DX009 (ip), vehicle: saline with Tween-80 101 % of control | endpoint: mean survival time, dose: 20.0 mg/kg/injection, schedule: Q04DX003 (ip), vehicle: saline 97 % of control | endpoint: mean survival time, dose: 40.0 mg/kg/injection, schedule: Q01DX009 (ip), vehicle: saline with Tween-80 109 % of control | endpoint: mean survival time, dose: 40.0 mg/kg/injection, schedule: Q04DX003 (ip), vehicle: saline 101 % of control

O=C1C=CC(=NS(=O)(=O)c2ccccc2)C=C1
inactive: endpoint: mean survival time, dose: 25.0 mg/kg/injection, schedule: Q01DX001 (ip), vehicle: other 93 % of control | endpoint: mean survival time, dose: 50.0 mg/kg/injection, schedule: Q01DX001 (ip), vehicle: other 95 % of control | endpoint: mean survival time, dose: 100.0 mg/kg/injection, schedule: Q01DX001 (ip), vehicle: other 104 % of control

CCC(C)(OC(C)=O)C(=O)OC1C(=O)OC2CC3C(C)=CC(O)C(O)C3(C)C3C4(O)OCC23C1C(C)C4O (stereo not drawn)
inactive: endpoint: mean survival time, dose: 0.25 mg/kg/injection, schedule: Q01DX009 (ip), vehicle: saline + alcohol 98 % of control | endpoint: mean survival time, dose: 0.5 mg/kg/injection, schedule: Q01DX009 (ip), vehicle: saline + alcohol 102 % of control | endpoint: mean survival time, dose: 1.0 mg/kg/injection, schedule: Q01DX009 (ip), vehicle: saline + alcohol 106 % of control | endpoint: mean survival time, dose: 2.0 mg/kg/injection, schedule: Q01DX009 (ip), vehicle: saline + alcohol 98 % of control | endpoint: mean survival time, dose: 4.0 mg/kg/injection, schedule: Q01DX009 (ip), vehicle: saline + alcohol 96 % of control

Cn1c(=O)c2c(ncn2CCCNCC(O)c2ccc(O)c(O)c2)n(C)c1=O (stereo not drawn)
inactive: endpoint: mean survival time, dose: 12.5 mg/kg/injection, schedule: Q01DX005 (ip), vehicle: water 98 % of control | endpoint: mean survival time, dose: 25.0 mg/kg/injection, schedule: Q01DX005 (ip), vehicle: water 98 % of control | endpoint: mean survival time, dose: 50.0 mg/kg/injection, schedule: Q01DX005 (ip), vehicle: water 94 % of control | endpoint: mean survival time, dose: 100.0 mg/kg/injection, schedule: Q01DX005 (ip), vehicle: water 100 % of control

Cc1ccccc1N=Cc1ccc(N(C)C)cc1
inactive: [6] 96 % of control | [1] 97 % of control | [2] 95 % of control | [3] 103 % of control | [4] 90 % of control | [5] 98 % of control

O=C(CCCCl)CC(O)(C(F)(F)Cl)C(F)(F)Cl
inactive: endpoint: mean survival time, dose: 25.0 mg/kg/injection, schedule: Q01DX009 (ip), vehicle: saline 94 % of control | endpoint: mean survival time, dose: 50.0 mg/kg/injection, schedule: Q01DX009 (ip), vehicle: saline 100 % of control | endpoint: mean survival time, dose: 100.0 mg/kg/injection, schedule: Q01DX009 (ip), vehicle: saline 94 % of control

C=CCS(=O)(=O)Cc1cccc([N+](=O)[O-])c1
inactive: [7] 103 % of control | [8] 94 % of control | [9] 90 % of control

COc1ccc2oc(-c3ccc(Cl)cc3)c(N3CCN(C)CC3)c2c1
inactive: endpoint: median survival time, dose: 15.0 mg/kg/injection, schedule: Q01DX005 (ip), vehicle: saline 104 % of control | endpoint: median survival time, dose: 30.0 mg/kg/injection, schedule: Q01DX005 (ip), vehicle: saline 103 % of control | endpoint: median survival time, dose: 60.0 mg/kg/injection, schedule: Q01DX005 (ip), vehicle: saline 100 % of control | endpoint: median survival time, dose: 120.0 mg/kg/injection, schedule: Q01DX005 (ip), vehicle: saline 107 % of control | endpoint: median survival time, dose: 240.0 mg/kg/injection, schedule: Q01DX005 (ip), vehicle: saline 119 % of control

CCCc1ccc(NS(=O)(=O)c2ccc(C)cc2)cc1
inactive: [7] 98 % of control | [8] 103 % of control | [9] 92 % of control

Cc1cc(C(C(N)=O)c2ccccc2)ccc1N(CCCl)CCCl (stereo not drawn)
inactive: endpoint: mean survival time, dose: 88.8 mg/kg/injection, schedule: Q01DX001 (ip), vehicle: other 122 % of control | endpoint: mean survival time, dose: 300.0 mg/kg/injection, schedule: Q01DX001 (ip), vehicle: other 104 % of control

COC1=C(N)C(=O)c2nc(-c3nc(C(=O)O)c(C)c(-c4ccc(OC)c(OC)c4O)c3N)ccc2C1=O
inactive: endpoint: mean survival time, dose: 0.25 mg/kg/injection, schedule: Q01DX009 (ip), vehicle: saline with Tween-80 117 % of control | endpoint: mean survival time, dose: 0.5 mg/kg/injection, schedule: Q01DX009 (ip), vehicle: saline with Tween-80 100 % of control | endpoint: mean survival time, dose: 0.5 mg/kg/injection, schedule: Q04DX003 (ip), vehicle: saline with Tween-80 118 % of control | endpoint: mean survival time, dose: 1.0 mg/kg/injection, schedule: Q04DX003 (ip), vehicle: saline with Tween-80 105 % of control

Cc1cc(N2CCCN(C)CC2)nc(/N=C(\N)Nc2ccc(Cl)c(Cl)c2)n1
inactive: [1] 88 % of control

C=C(Br)C(=O)O
inactive: endpoint: mean survival time, dose: 100.0 mg/kg/injection, schedule: Q01DX001 (ip), vehicle: saline 93 % of control | endpoint: mean survival time, dose: 200.0 mg/kg/injection, schedule: Q01DX001 (ip), vehicle: saline 98 % of control

CCCCCCCC/C=C\CCCCCCCC(=O)OCCCCC
inactive: [10] 87 % of control | [11] 95 % of control | endpoint: mean survival time, dose: 400.0 mg/kg/injection, schedule: Q04DX002 (ip), vehicle: saline with Tween-80 106 % of control

O=[N+]([O-])c1ccc(/C=C/c2ccccc2)cc1
inactive: [6] 104 % of control | [1] 102 % of control | [2] 100 % of control | [3] 104 % of control | [4] 98 % of control | [5] 96 % of control

CCCCOC(=O)Nc1ccccn1
inactive: [10] 101 % of control | [11] 104 % of control
